This note sets out measurements from paper PMC12066314, “Apigenin promotes melanogenesis and melanosome transport through the c-KIT/Raf-1/MAPK/CREB pathway in HEMCs” (Frontiers in Pharmacology, 2025).

This assay addresses c-KIT (Homo sapiens, UniProt P10721). Nature of the assay: microscale thermophoresis (MST), […] target. Type of assay: binding.

Sequence of c-KIT (P10721 26-976): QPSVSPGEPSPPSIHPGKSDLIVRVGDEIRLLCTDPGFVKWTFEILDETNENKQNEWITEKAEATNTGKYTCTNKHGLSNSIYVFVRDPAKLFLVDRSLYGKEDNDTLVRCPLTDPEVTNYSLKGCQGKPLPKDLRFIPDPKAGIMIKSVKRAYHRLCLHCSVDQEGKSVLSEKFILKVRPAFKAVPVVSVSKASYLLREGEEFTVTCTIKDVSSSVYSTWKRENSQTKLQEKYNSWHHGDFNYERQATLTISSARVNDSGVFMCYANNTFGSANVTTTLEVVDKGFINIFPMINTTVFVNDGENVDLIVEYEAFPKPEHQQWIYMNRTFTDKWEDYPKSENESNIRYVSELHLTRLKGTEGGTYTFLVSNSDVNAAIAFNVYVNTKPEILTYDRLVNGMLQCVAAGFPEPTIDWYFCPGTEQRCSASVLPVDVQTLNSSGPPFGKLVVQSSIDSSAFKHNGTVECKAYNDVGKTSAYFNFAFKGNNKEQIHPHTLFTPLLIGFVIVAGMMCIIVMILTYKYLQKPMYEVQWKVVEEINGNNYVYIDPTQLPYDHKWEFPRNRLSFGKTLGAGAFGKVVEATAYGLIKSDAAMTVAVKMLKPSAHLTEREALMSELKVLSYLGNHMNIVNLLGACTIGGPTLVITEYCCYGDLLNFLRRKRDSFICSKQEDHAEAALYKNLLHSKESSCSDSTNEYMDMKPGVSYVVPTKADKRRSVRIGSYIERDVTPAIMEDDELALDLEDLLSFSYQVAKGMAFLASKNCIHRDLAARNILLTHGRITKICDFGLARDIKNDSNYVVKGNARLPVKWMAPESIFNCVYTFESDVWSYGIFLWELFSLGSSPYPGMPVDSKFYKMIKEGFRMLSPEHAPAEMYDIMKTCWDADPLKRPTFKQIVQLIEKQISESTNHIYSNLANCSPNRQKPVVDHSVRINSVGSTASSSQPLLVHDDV

As to `O=c1cc(-c2ccc(O)cc2)oc2cc(O)cc(O)c12` [Apigenin], the Kd is 2600 nM.
